Measurements: article PMC5218480 (PLoS ONE, 2017)

System: MV-4-11 cells
Experiment: Gene expression microarray analysis (Affymetrix PrimeView) and GSEA
Assay type: cell-based, human
Design: RFU PODN (11730768_x_at) / Fold change /veh PODN (11730768_x_at) / RFU LINC00158 (11744669_a_at) / Fold change /veh LINC00158 (11744669_a_at) / RFU DUSP10 (11751237_a_at) / Fold change /veh DUSP10 (11751237_a_at) / RFU ID3 (11757404_x_at) / Fold change /veh ID3 (11757404_x_at) / RFU PLEKHG5 (11737974_s_at) / Fold change /veh PLEKHG5 (11737974_s_at) / RFU LRRC4B (11730491_at) / Fold change /veh LRRC4B (11730491_at) / RFU GIMAP4 (11747438_a_at) / Fold change /veh GIMAP4 (11747438_a_at) / RFU KRT8 (11758183_x_at) / Fold change /veh KRT8 (11758183_x_at) / RFU CNN1 (11734310_a_at) / Fold change /veh CNN1 (11734310_a_at) / RFU VPS37D (11726825_at) / Fold change /veh VPS37D (11726825_at) / RFU C10orf10 (11716522_x_at) / Fold change /veh C10orf10 (11716522_x_at) / RFU KIR2DL2 /// KIR2DL4 /// KIR2DL5A /// KIR2DL5B /// KIR2DS1 /// KIR2DS2 /// KIR2DS3 /// KIR2DS4 /// KIR3DL3 /// KIR3DL3 /// KIR3DS1 (11738374_at) / Fold change /veh KIR2DL2 /// KIR2DL4 /// KIR2DL5A /// KIR2DL5B /// KIR2DS1 /// KIR2DS2 /// KIR2DS3 /// KIR2DS4 /// KIR3DL3 /// KIR3DL3 /// KIR3DS1 (11738374_at) / RFU C1QL1 (11718748_at) / Fold change /veh C1QL1 (11718748_at) / RFU TMPRSS4 (11747572_a_at) / Fold change /veh TMPRSS4 (11747572_a_at) / RFU HAMP (11756126_x_at) / Fold change /veh HAMP (11756126_x_at) / RFU RNFT2 (11725882_a_at) / Fold change /veh RNFT2 (11725882_a_at) / RFU NR4A2 (11747474_a_at) / Fold change /veh NR4A2 (11747474_a_at) / RFU ABCC12 (11746883_a_at) / Fold change /veh ABCC12 (11746883_a_at) / RFU TMEM136 (11760407_x_at) / Fold change /veh TMEM136 (11760407_x_at) / RFU CLDN22 /// WWC2 (11732394_at) / Fold change /veh CLDN22 /// WWC2 (11732394_at) / RFU HLA-DPB1 (11760878_x_at) / Fold change /veh HLA-DPB1 (11760878_x_at) / RFU SPINT1 (11716480_a_at) / Fold change /veh SPINT1 (11716480_a_at) / RFU GAP43 (11754022_s_at) / Fold change /veh GAP43 (11754022_s_at) / RFU A4GNT (11735810_at) / Fold change /veh A4GNT (11735810_at) / RFU PRB3 (11715151_x_at) / Fold change /veh PRB3 (11715151_x_at) / RFU TUBB4B (11761932_at) / Fold change /veh TUBB4B (11761932_at) / RFU CAPN14 (11732068_a_at) / Fold change /veh CAPN14 (11732068_a_at) / RFU TMCC2 (11721928_a_at) / Fold change /veh TMCC2 (11721928_a_at) / RFU IRGQ (11745062_a_at) / Fold change /veh IRGQ (11745062_a_at) / RFU FAM174B (11720279_a_at) / Fold change /veh FAM174B (11720279_a_at) / RFU TMPRSS4 (11748680_a_at) / Fold change /veh TMPRSS4 (11748680_a_at) / RFU FAM212B (11763350_a_at) / Fold change /veh FAM212B (11763350_a_at) / RFU PLEKHG5 (11743358_a_at) / Fold change /veh PLEKHG5 (11743358_a_at) / RFU ZSCAN30 (11745921_a_at) / Fold change /veh ZSCAN30 (11745921_a_at) / RFU CMKLR1 (11741424_a_at) / Fold change /veh CMKLR1 (11741424_a_at) / RFU LOC101060620 /// MAPK8IP1 (11723275_at) / Fold change /veh LOC101060620 /// MAPK8IP1 (11723275_at) / RFU SPTSSB (11747773_x_at) / Fold change /veh SPTSSB (11747773_x_at) / RFU PRSS12 (11739890_at) / Fold change /veh PRSS12 (11739890_at) / RFU BIN1 (11741810_x_at) / Fold change /veh BIN1 (11741810_x_at) / RFU WNT11 (11732464_a_at) / Fold change /veh WNT11 (11732464_a_at) / RFU C10orf10 (11716521_a_at) / Fold change /veh C10orf10 (11716521_a_at) / RFU C5orf56 (11738089_at) / Fold change /veh C5orf56 (11738089_at) / RFU CYB561 (11721691_x_at) / Fold change /veh CYB561 (11721691_x_at) / RFU ANKRD19P (11752326_a_at) / Fold change /veh ANKRD19P (11752326_a_at) / RFU OR2T12 /// OR2T33 /// OR2T8 (11738714_s_at) / Fold change /veh OR2T12 /// OR2T33 /// OR2T8 (11738714_s_at) / RFU VCAN (11748164_a_at) / Fold change /veh VCAN (11748164_a_at) / RFU JSRP1 (11732532_at) / Fold change /veh JSRP1 (11732532_at) / RFU KRTAP10-11 (11738290_x_at) / Fold change /veh KRTAP10-11 (11738290_x_at) / RFU MYO3A (11730013_a_at) / Fold change /veh MYO3A (11730013_a_at) / RFU EBF3 (11725865_a_at) / Fold change /veh EBF3 (11725865_a_at) / RFU CAMK2N1 (11719241_x_at) / Fold change /veh CAMK2N1 (11719241_x_at) / RFU C5orf56 (11738088_a_at) / Fold change /veh C5orf56 (11738088_a_at) / RFU OLFML3 (11715873_a_at) / Fold change /veh OLFML3 (11715873_a_at) / RFU LOC100653217 /// NTM (11731650_a_at) / Fold change /veh LOC100653217 /// NTM (11731650_a_at) / RFU MAPK11 (11762145_a_at) / Fold change /veh MAPK11 (11762145_a_at) / RFU FIZ1 (11724087_x_at) / Fold change /veh FIZ1 (11724087_x_at) / RFU OASL (11726364_x_at) / Fold change /veh OASL (11726364_x_at) / RFU SOX15 (11748057_x_at) / Fold change /veh SOX15 (11748057_x_at) / RFU CD79A (11719716_a_at) / Fold change /veh CD79A (11719716_a_at) / RFU HIST1H1D (11736915_at) / Fold change /veh HIST1H1D (11736915_at) / RFU CASKIN2 (11723855_a_at) / Fold change /veh CASKIN2 (11723855_a_at) / RFU LOC730098 (11760151_x_at) / Fold change /veh LOC730098 (11760151_x_at) / RFU OR4N2 (11742367_at) / Fold change /veh OR4N2 (11742367_at) / RFU PRRT2 (11749266_a_at) / Fold change /veh PRRT2 (11749266_a_at) / RFU SNX32 (11753110_a_at) / Fold change /veh SNX32 (11753110_a_at) / RFU CDHR5 (11726645_a_at) / Fold change /veh CDHR5 (11726645_a_at) / RFU RCAN1 (11760418_a_at) / Fold change /veh RCAN1 (11760418_a_at) / RFU FAM167A (11723789_a_at) / Fold change /veh FAM167A (11723789_a_at) / RFU FAM26E (11764081_at) / Fold change /veh FAM26E (11764081_at) / RFU ISYNA1 (11749810_s_at) / Fold change /veh ISYNA1 (11749810_s_at) / RFU ACY1 (11761880_at) / Fold change /veh ACY1 (11761880_at) / RFU 11764098_at / Fold change /veh 11764098_at / RFU SAMD14 (11745864_x_at) / Fold change /veh SAMD14 (11745864_x_at) / RFU NPB (11741838_a_at) / Fold change /veh NPB (11741838_a_at) / RFU TMPRSS6 (11731388_a_at) / Fold change /veh TMPRSS6 (11731388_a_at) / RFU KRTAP10-2 (11738614_at) / Fold change /veh KRTAP10-2 (11738614_at) / RFU ARHGAP8 /// PRR5-ARHGAP8 (11727945_x_at) / Fold change /veh ARHGAP8 /// PRR5-ARHGAP8 (11727945_x_at) / RFU KRTAP5-7 /// NADSYN1 (11734609_at) / Fold change /veh KRTAP5-7 /// NADSYN1 (11734609_at) / RFU RASL12 (11751679_a_at) / Fold change /veh RASL12 (11751679_a_at) / RFU CDKN2B (11736163_a_at) / Fold change /veh CDKN2B (11736163_a_at) / RFU PRF1 (11729649_at) / Fold change /veh PRF1 (11729649_at) / RFU, ZNF638 /// ZNF638-IT1 / Fold change vs veh, ZNF638 /// ZNF638-IT1 / RFU, PANK3 / Fold change vs veh, PANK3 / RFU, SH3YL1 / Fold change vs veh, SH3YL1 / RFU, ZEB2 / Fold change vs veh, ZEB2 / RFU, NRIP1 / Fold change vs veh, NRIP1 / RFU, PTTG1IP / Fold change vs veh, PTTG1IP / RFU, CAPN2 / Fold change vs veh, CAPN2 / RFU, MED14 / Fold change vs veh, MED14 / RFU, SNORA58 / Fold change vs veh, SNORA58 / RFU, C1orf63 / Fold change vs veh, C1orf63 / RFU, LRRFIP1 / Fold change vs veh, LRRFIP1 / RFU, NDUFAF7 / Fold change vs veh, NDUFAF7 / RFU, SLC12A2 / Fold change vs veh, SLC12A2 / RFU, IBTK / Fold change vs veh, IBTK / RFU, ESF1 / Fold change vs veh, ESF1 / Fold change vs veh, TMEM50B / RFU, TAOK1 / Fold change vs veh, TAOK1 / RFU, ACBD3 / Fold change vs veh, ACBD3 / RFU, TMA16 / Fold change vs veh, TMA16 / RFU, RWDD3 / Fold change vs veh, RWDD3 / RFU, BCAT1 / Fold change vs veh, BCAT1 / RFU, EDEM3 / Fold change vs veh, EDEM3 / RFU, TMEM33 / Fold change vs veh, TMEM33 / RFU, WDR75 / Fold change vs veh, WDR75 / RFU, AHCTF1 / Fold change vs veh, AHCTF1 / RFU, TFRC / Fold change vs veh, TFRC / RFU, ZDHHC17 / Fold change vs veh, ZDHHC17 / RFU, NOM1 / Fold change vs veh, NOM1 / RFU, ARL8B / Fold change vs veh, ARL8B / RFU, ZBTB11 / Fold change vs veh, ZBTB11 / RFU, TAMM41 / Fold change vs veh, TAMM41 / RFU, KIAA1704 /// LOC100996395 / Fold change vs veh, KIAA1704 /// LOC100996395 / RFU, ING1 / Fold change vs veh, ING1 / RFU, TRMT61B / Fold change vs veh, TRMT61B / RFU, FUBP3 / Fold change vs veh, FUBP3 / RFU, TP53 / Fold change vs veh, TP53 / RFU, TNKS2 / Fold change vs veh, TNKS2 / RFU, ZFP14 / Fold change vs veh, ZFP14 / RFU, ACTR2 / Fold change vs veh, ACTR2 / RFU, PPP3R1 / Fold change vs veh, PPP3R1 / RFU, PIK3R1 / Fold change vs veh, PIK3R1 / RFU, HNRNPA1 / Fold change vs veh, HNRNPA1 / RFU, RNF170 / Fold change vs veh, RNF170 / RFU, ZNF28 / Fold change vs veh, ZNF28 / RFU, RNGTT / Fold change vs veh, RNGTT / RFU, OGT / Fold change vs veh, OGT / RFU, BRD1 / Fold change vs veh, BRD1 / RFU, MARS / Fold change vs veh, MARS / RFU, ZNF655 / Fold change vs veh, ZNF655 / RFU, FAHD1 / Fold change vs veh, FAHD1 / RFU, BDP1 / Fold change vs veh, BDP1 / RFU, LRRCC1 / Fold change vs veh, LRRCC1 / RFU, ARID1A / Fold change vs veh, ARID1A / RFU, ZNF146 / Fold change vs veh, ZNF146 / RFU, ZNF330 / Fold change vs veh, ZNF330 / RFU, GPN3 / Fold change vs veh, GPN3 / RFU, C9orf123 / Fold change vs veh, C9orf123 / RFU, N4BP2L2 / Fold change vs veh, N4BP2L2 / RFU, ARFIP1 / Fold change vs veh, ARFIP1 / RFU, FAM179B / Fold change vs veh, FAM179B / RFU, BCL10 / Fold change vs veh, BCL10 / RFU, UHRF1BP1L / Fold change vs veh, UHRF1BP1L / RFU, BET1 / Fold change vs veh, BET1 / RFU, CNOT2 / Fold change vs veh, CNOT2 / RFU, ZNF268 / Fold change vs veh, ZNF268 / Fold change vs veh, ZNF507 / RFU, DGCR2 / Fold change vs veh, DGCR2 / RFU, WDSUB1 / Fold change vs veh, WDSUB1 / Fold change vs veh, HSP90B1 /// MIR3652 / RFU, ADSS / Fold change vs veh, ADSS / RFU, GK / Fold change vs veh, GK / RFU, ZNF148 / Fold change vs veh, ZNF148 / RFU, TAF9 / Fold change vs veh, TAF9 / RFU, SLC1A5 / Fold change vs veh, SLC1A5 / RFU, SLMO2 / Fold change vs veh, SLMO2 / RFU, ABCC4 / Fold change vs veh, ABCC4 / RFU, LOC101060439 /// RAP1B / Fold change vs veh, LOC101060439 /// RAP1B / RFU, RFX7 / Fold change vs veh, RFX7 / RFU, GTPBP10 / Fold change vs veh, GTPBP10 / RFU, CNEP1R1 / Fold change vs veh, CNEP1R1 / RFU, BIVM-ERCC5 /// ERCC5 / Fold change vs veh, BIVM-ERCC5 /// ERCC5 / RFU, ILF3 / Fold change vs veh, ILF3 / RFU 11762660_at / Fold change /veh 11762660_at / RFU VCAN (11757783_s_at) / Fold change /veh VCAN (11757783_s_at) / RFU DDX43 (11728927_at) / Fold change /veh DDX43 (11728927_at) / RFU KRT8 (11758188_x_at) / Fold change /veh KRT8 (11758188_x_at) / RFU NKD1 (11759106_at) / Fold change /veh NKD1 (11759106_at) / RFU SRD5A1 (11742802_a_at) / Fold change /veh SRD5A1 (11742802_a_at) / RFU TPSAB1 /// TPSB2 (11721975_s_at) / Fold change /veh TPSAB1 /// TPSB2 (11721975_s_at) / RFU GSTM3 (11746129_a_at) / Fold change /veh GSTM3 (11746129_a_at) / RFU IL23R (11737362_x_at) / Fold change /veh IL23R (11737362_x_at) / RFU TMEM51 (11727254_a_at) / Fold change /veh TMEM51 (11727254_a_at) / RFU PIWIL2 (11732686_x_at) / Fold change /veh PIWIL2 (11732686_x_at) / RFU ORM1 (11744905_x_at) / Fold change /veh ORM1 (11744905_x_at) / RFU CCDC152 (11743942_at) / Fold change /veh CCDC152 (11743942_at) / RFU ECM1 (11717891_a_at) / Fold change /veh ECM1 (11717891_a_at) / RFU IL23R (11748794_a_at) / Fold change /veh IL23R (11748794_a_at) / RFU TNFAIP8L3 (11732012_x_at) / Fold change /veh TNFAIP8L3 (11732012_x_at) / RFU MBOAT4 (11741988_at) / Fold change /veh MBOAT4 (11741988_at) / RFU 11764193_at / Fold change /veh 11764193_at / RFU TMEM53 (11763286_at) / Fold change /veh TMEM53 (11763286_at) / RFU MAGEB2 (11727129_at) / Fold change /veh MAGEB2 (11727129_at) / RFU TMEM200A (11744735_a_at) / Fold change /veh TMEM200A (11744735_a_at) / RFU CCDC152 (11751479_a_at) / Fold change /veh CCDC152 (11751479_a_at) / RFU FAM211A (11726209_a_at) / Fold change /veh FAM211A (11726209_a_at) / RFU RGS16 (11746705_a_at) / Fold change /veh RGS16 (11746705_a_at) / RFU VCAN (11755009_s_at) / Fold change /veh VCAN (11755009_s_at) / RFU RHOB (11743442_s_at) / Fold change /veh RHOB (11743442_s_at) / RFU RGS16 (11720943_a_at) / Fold change /veh RGS16 (11720943_a_at) / RFU RGS16 (11720944_at) / Fold change /veh RGS16 (11720944_at) / RFU, VPS4B / Fold change vs veh, VPS4B / RFU, CREB1 / Fold change vs veh, CREB1 / RFU, DNAJC13 / Fold change vs veh, DNAJC13 / RFU, GNAQ / Fold change vs veh, GNAQ / RFU, CDK5R1 / Fold change vs veh, CDK5R1 / RFU, ZRANB3 / Fold change vs veh, ZRANB3 / RFU, CUL4A / Fold change vs veh, CUL4A / RFU, CCNY / Fold change vs veh, CCNY / RFU, UFL1 / Fold change vs veh, UFL1 / RFU, COG3 / Fold change vs veh, COG3 / RFU, DIAPH2 / Fold change vs veh, DIAPH2 / RFU, SKA2 / Fold change vs veh, SKA2 / RFU, AFF3 / Fold change vs veh, AFF3 / RFU, LMF1 / Fold change vs veh, LMF1 / RFU, IPO11 / Fold change vs veh, IPO11 / RFU, DFFB / Fold change vs veh, DFFB / RFU, FOXP1 / Fold change vs veh, FOXP1 / RFU, CARD8 / Fold change vs veh, CARD8 / RFU, STRN3 / Fold change vs veh, STRN3 / RFU, ADK / Fold change vs veh, ADK / RFU, RASSF2 / Fold change vs veh, RASSF2 / RFU, WIPF1 / Fold change vs veh, WIPF1 / RFU, LARP1B / Fold change vs veh, LARP1B / RFU, RASA1 / Fold change vs veh, RASA1 / RFU, RB1 / Fold change vs veh, RB1 / RFU, PPFIA1 / Fold change vs veh, PPFIA1 / RFU, MAT2A / Fold change vs veh, MAT2A / RFU, CCT5 / Fold change vs veh, CCT5 / RFU, WDR92 / Fold change vs veh, WDR92 / RFU, CUX1 / Fold change vs veh, CUX1 / RFU, TTC7A / Fold change vs veh, TTC7A / RFU, TMEM135 / Fold change vs veh, TMEM135 / RFU, DEPTOR / Fold change vs veh, DEPTOR / RFU, CPM / Fold change vs veh, CPM / RFU, DNAJB6 / Fold change vs veh, DNAJB6 / RFU, CACNA2D3 / Fold change vs veh, CACNA2D3 / RFU, DTX4 / Fold change vs veh, DTX4 / RFU, TFCP2 / Fold change vs veh, TFCP2 / RFU, GMCL1 /// GMCL1P1 / Fold change vs veh, GMCL1 /// GMCL1P1 / RFU, AEBP2 / Fold change vs veh, AEBP2 / RFU, SNHG1 /// SNORD22 /// SNORD25 /// SNORD26 /// SNORD27 /// SNORD28 /// SNORD29 /// SNORD31 / Fold change vs veh, SNHG1 /// SNORD22 /// SNORD25 /// SNORD26 /// SNORD27 /// SNORD28 /// SNORD29 /// SNORD31 / Fold change (Aza/veh), C12orf56 (ProbeSet 11735607_a_at) / Fold change (ACY-1035/veh), C12orf56 (ProbeSet 11735607_a_at) / Fold change (Aza/veh), FGFR1OP (ProbeSet 11751329_s_at) / Fold change (ACY-1035/veh), FGFR1OP (ProbeSet 11751329_s_at) / Fold change (Aza/veh), VPS36 (ProbeSet 11739960_a_at) / Fold change (ACY-1035/veh), VPS36 (ProbeSet 11739960_a_at) / RFU SYPL1 (11715823_x_at) / Fold change /veh SYPL1 (11715823_x_at) / RFU IGFBP7 (11715501_s_at) / Fold change /veh IGFBP7 (11715501_s_at) / RFU REEP3 (11722064_at) / Fold change /veh REEP3 (11722064_at) / RFU IGLL1 (11728026_x_at) / Fold change /veh IGLL1 (11728026_x_at): dose or concentration left out as unconfirmed
Conditions: ProbeSet 11753623_s_at; LIST D

Nc1ncn([C@@H]2O[C@H](CO)[C@@H](O)[C@H]2O)c(=O)n1 [azacitidine]
Fold change vs veh, LOC101060439 /// RAP1B: 0.77
